Where “and” joins values, the source holds several entries; their conditions need not be identical. Equal values may be shown once.
How the values were obtained:
[1] = two patients with VKORC1 Asp36Tyr; Geisen 2005b; cited from earlier work
[2] = CYP2C9*1 (wild type) allele; Higashi 2002, Sconce 2005; cited from earlier work
[3] = Warfarin dose requirements in selected warfarin resistant and warfarin sensitive patients at stable therapeutic INR; type: in vivo, human
Description: Aliquots of fresh whole blood were drawn for INR determination and DNA extraction.
Data Analyses—Statistical analyses were performed using SPSS software (version 11.0, SPSS Inc.) and GB-STAT software package (version 8.0, Dynamic Microsystems Inc.). Relevant statistical applications are mentioned in the text, odds ratios (OR) are presented with 95% confidence limits, p value of <0.05 indicates statistical significance.

[4] = Warfarin dose requirements in 99 unselected warfarin-treated subjects at stable INR, by VKORC1 Asp36Tyr (D36Y) carrier status; type: in vivo, human
[5] = Effect of combined CYP2C9, VKORC1 and CALU genotypes on warfarin dose requirements (FIG. 2); type: in vivo, human; conditions: dotted line of FIG. 2
Description: The combined genotypes are ordered according to the model proposed by Wallin R, et al., 2001, assuming the reduced VKORC1 activity associated with the VKORC1 6853G→C polymorphism and the reduced activity of CALU associated with the CALU 73G→A (R4Q) polymorphism and assigning equal weight to CYP2C9 and VKORC1 genotypes. […] CYP2C9=cytochrome P450 2C9; VKORC1=vitamin K epoxide reductase component 1; CALU=calumenin;

[6] = 23 selected resistant and sensitive subjects

| SMILES | phenprocoumon requirement to maintain INR between 2.0 and 3.0 [1] | warfarin doses associated with CYP2C9*1 variant [2] | INR maintained under warfarin [3, 6] | INR maintained under warfarin, range [3, 6] | mean warfarin weekly dose ([3]; warfarin resistant group (N=15, subjects 1-15)) | mean warfarin weekly dose ([3]; warfarin sensitive group (N=8, subjects 16-23)) | INR maintained under warfarin, range ([4]; 99 unselected warfarin-treated subjects) | INR maintained under warfarin ([4]; 99 unselected warfarin-treated subjects, stable INR) | warfarin dose requirements, range ([4]; carriers of VKORC1 Asp36Tyr (8/99), upper dose quartile) | warfarin dose requirements, range ([4]; non-carriers of Asp36Tyr (n=91)) | mean warfarin dose required ([4]; non-carriers of Asp36Tyr (n=91), mean±SD) | mean warfarin dose ([4]; whole unselected warfarin-treated group (N=99), stable INR) | median weight-normalized warfarin dose [5] |
| --- | --- | --- | --- | --- | --- | --- | --- | --- | --- | --- | --- | --- | --- |
| CCC(c1ccccc1)c1c(O)c2ccccc2oc1=O (stereo not shown) [phenprocoumon] | 40-50 mg per week | – | – | – | – | – | – | – | – | – | – | – | – |
| CC(=O)CC(c1ccccc1)c1c(O)c2ccccc2oc1=O (stereo not shown) [warfarin] | – | 28-39 mg/week | 2.7±0.5 | 1.9-4.2 | 112.8±29 mg/week and 112.8 mg/week | 10.5±2.32 mg/week and 10.5 mg/week | 1.9-4.2 | 2.7±0.5 | 70-105 mg/week and > 70 mg/week | 8-70 mg/week | 42.7±7.5 mg/week | 39.4±7.8 mg/week | 4.8 mg/day |

Source: patent publication US20090226909A1 (Tel HaShomer Medical Research Infrastructure and Services …, priority 2006, published 2009)
